According to US8546322B2, “Inhibitors of intracellular urokinase plasminogen activator and methods of use thereof” (The Regents of the University of California, priority 2007, dated 2013):
Entries after “also recorded” stand apart in the source; their conditions may differ. Read-outs that look alike come from different tables or passages of the source. Blank lines part the entries; values can stand above or below the compound they belong to. *1 amine or outer side, *2 acyl side, *3 side chain or, on linkers, in order; H or OH if unused. Where a SMILES comes first, the peptide text is derived from it. [ ]: non-standard residue; d: D form. X1 = N=C(N)NC(=O)c1nc(Cl)c(N(CC(=O)[*:2])[*:1])nc1N

Experiments:
[1] = target: T1, bovine pancreatic trypsin (Bos taurus, UniProt P00760); test: LCMS trypsin digest (negative control enzyme); assay type: biochemical; conditions: LCMS after incubation with enzyme
T1 construct: purchased Calbiochem; host or cells: bovine pancreas
T1 sequence (P00760 24-246): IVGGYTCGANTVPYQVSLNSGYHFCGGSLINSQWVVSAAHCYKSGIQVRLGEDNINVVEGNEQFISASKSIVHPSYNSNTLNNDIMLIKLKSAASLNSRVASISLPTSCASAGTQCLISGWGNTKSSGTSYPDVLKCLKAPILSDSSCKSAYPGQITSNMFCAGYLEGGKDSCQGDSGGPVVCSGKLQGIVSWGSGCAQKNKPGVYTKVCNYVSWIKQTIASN
Protocol: (§1) Compound 3b is a C5am-Gly-peptide conjugate containing two D-amino acids, and compound 3c is a C5 am-Gly-peptide conjugate coupled to a peptide to generate an analog of opioid peptides that cross the blood brain barrier (BBB). The resultant conjugates (compounds 3a-c) were tested for selective cleavage by the brain peptidase enkephalinase (neutral endopeptidase 24.11; Calbiochem) via incubation for 24 h in the presence or absence of the enzyme, and aliquots from the reaction solutions were then analyzed by LCMS to identify the C5am-Gly conjugate (compound 3a), starting material, and enzymatic cleavage products (see, Scheme 3). As negative control experiments, the conjugates were analyzed following treatment with (1) bovine pancreatic trypsin (Calbiochem) or (2) the buffer solutions without enzymes.

[2] = Incubation in buffer solutions without enzymes; assay type: physicochemical
Protocol: as §1

[3] = in vivo; cited from earlier work
U87 glioma cells [4] = test: U87 cell death, manual cell counts with trypan blue exclusion; assay type: cell-based, human; conditions: for % cell death, trypan blue: 250 microM, 48 h treatment
U87 glioma cells [5] = test: Cell permeation by fluorescent microscopy of U87 glioma cells; assay type: cell-based; conditions: 50 μM, 90-180 min incubation
Protocol: 27). The fluorescent extinction coefficient of each compound is determined using a spectrofluorometer and permits semi-quantitative estimations of intracellular drug accumulation.
U87 glioma cells were incubated with 50 uM of each compound for 180 min followed by washing the cells ×2 with PBS.

U87 glioma cells [6] = test: U87 glioma cell adherence to extracellular matrix (ECM); assay type: cell-based, human; conditions: for activity at 250 µM: Homo sapiens, U-87 MG, U87 cells on ECM, 4 h, read-out: % of control attachment at 4 h
Protocol: As shown in FIGS. 4A and B and, U87 glioma cells in logarithmic growth were trypsinized and washed ×1 with PBS. 4×10^5 cells were plated on to each ECM-coated well that was treated as indicated. Cells were monitored for adherence to the ECM. The numbers of attached cells in each well were manually counted using interference microscopy after 4 hours when adherence was complete. Experiments were performed in triplicate for each treatment and data expressed as mean+S.D. **statistically signif at P<0.001. Glioma cell morphology 4 h after plating as visualized by phase contrast microscopy.
To study adherence, wells in 24-well plates are coated with 200 ul of PBS (CMF Dulbecco's) containing one of the following ECM substrates: {i} […] {ii} vitronectin {iii} fibronectin {iv} lamininin-5. Plates are incubated 1 h at 37° C. then wells are washed once with prewarmed serum-free DMEM and the drug added to each well. Each treatment group, consisting of pretreated glioma cells (3×10^3 cells/well) is plated into 6 wells, and adhesion is evaluated at 60 min intervals over a 6-18 hour period, depending of the cell line. Unbound cells are gently dislodged with Dulbecco's PBS, while counting adherent cells in 10 random fields per each well under 10× magnification using an inverted microscope with interference phase optics and an ocular grid (21 mm^2). During the same time intervals, the percent value of spread cells with respect to adherent cells is evaluated.

U87 glioma cells [7] = test: U87 proliferation and survival, tetrazolium (WST) live cell assay and manual cell counts; assay type: cell-based, human; conditions: for activity at 250 µM: Homo sapiens, U-87 MG, 48 h treatment, read-out: cell numbers as % of control at 48 h (WST assay)
Protocol: Proliferation of U87 glioma cells was inhibited by AmC(5)-GlyOBn at 24 h. […] Manual cell counts, coupled with the trypan blue exclusion assay, determined the number of viable cells at 24 h and 48 h. Three separate experiments (n=6/exp) with S.D. as shown, *significance at P<0.01. Removal of AmC(5)-GlyOBn at 24 h caused cell numbers to increase by 48 h, as compared with U87 glioma cell numbers that continued to be treated with the drug for 48 h (Table 1).
Total live cell numbers per well were determined using a tetrazolium assay (WST).
WST […] that can be reduced in attached and detached live cells to formazon that is detected spectrophotometrically. Formazon formation has been determined to be proportional to glioma cell number for U87MG, U251, U373, and primary astrocytes. Absorbances are measured at 570 nm using a microtiter plate reader. Mean background absorbances of cell-free media (630 nm) are subtracted from these values. […] Identical concentrations of glioma cells are grown until 50% confluent on 60 mm plates. Following drug treatments, floating cells in media are collected and combined with adherent cells that were harvested following 0.25% v/v trypsin for 5 minutes (37° C.). The combined fractions are centrifuged at 350×g for 5 min. The resultant cell pellet is resuspended in equal volumes of PBS-CMF with 0.4% trypan blue.

glioma cells = test: Glioma cell volume in vitro and in intracerebral xenografts (7 tesla NMR); assay type: cell-based
NHE1 = target: T2, NHE1 (Homo sapiens, UniProt P19634); test: Sodium-proton exchange (NHE1) inhibition in glioma cells (BCECF fluorometry); assay type: cell-based
T2 construct: endogenous in cells; host or cells: glioma cell lines (U87)
T2 sequence (P19634 whole entry): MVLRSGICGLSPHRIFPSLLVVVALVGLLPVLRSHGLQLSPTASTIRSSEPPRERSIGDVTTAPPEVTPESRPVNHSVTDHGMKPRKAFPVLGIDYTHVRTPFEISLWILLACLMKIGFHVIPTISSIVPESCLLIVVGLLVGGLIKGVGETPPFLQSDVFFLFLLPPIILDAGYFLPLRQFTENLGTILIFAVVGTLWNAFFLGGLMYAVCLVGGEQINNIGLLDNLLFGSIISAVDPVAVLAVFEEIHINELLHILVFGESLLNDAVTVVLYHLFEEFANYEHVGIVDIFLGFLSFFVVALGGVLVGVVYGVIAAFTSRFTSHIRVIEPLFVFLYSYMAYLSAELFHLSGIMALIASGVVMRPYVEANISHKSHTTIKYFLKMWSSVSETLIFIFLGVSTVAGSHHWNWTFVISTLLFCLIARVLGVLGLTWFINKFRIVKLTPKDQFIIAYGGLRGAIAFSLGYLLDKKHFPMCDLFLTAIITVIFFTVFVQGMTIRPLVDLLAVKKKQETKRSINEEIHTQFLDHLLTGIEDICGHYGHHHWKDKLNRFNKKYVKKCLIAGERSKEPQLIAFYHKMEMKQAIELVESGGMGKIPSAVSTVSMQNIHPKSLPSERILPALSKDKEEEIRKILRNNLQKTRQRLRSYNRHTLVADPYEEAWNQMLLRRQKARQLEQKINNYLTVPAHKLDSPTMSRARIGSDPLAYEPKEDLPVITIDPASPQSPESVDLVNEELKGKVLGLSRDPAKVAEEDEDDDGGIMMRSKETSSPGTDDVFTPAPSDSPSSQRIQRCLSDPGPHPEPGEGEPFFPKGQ
Protocol: Sodium-proton type 1 (NHE1) and sodium-calcium transport (NCX) measurements in glioma cells. Inhibition of NHE in glioma cell lines using BCECF and quantitative fluorometry are routinely measured (McLean, L. A., et al., Malignant gliomas display altered pH regulation by NHE1 compared with nontransformed astrocytes. Am J Physiol Cell Physiol, 2000. 278(4): p. C676-88). IC50 of NCX transport bidirectionally is measured using whole cell patch clamping bidirectional NCX inhibition using a HEK-293 cell line transfected with NCX 1.1 obtained from J. Lytton (Dong, H., J. Dunn, and J. Lytton, Stoichiometry of the Cardiac Na+/Ca2+ exchanger NCX1.1 measured in transfected HEK cells. Biophys J, 2002. 82(4): p. 1943-52).

uPA = target: T3, uPA (Homo sapiens, UniProt P00749); test: uPA enzymatic inhibition with peptide-specific fluorogenic substrates; assay type: biochemical
T3 construct: uPA, tPA, and MMP-2 and MMP-9 enzymatic activities secreted by and contained within glioma cell lines; endogenous in cells; host or cells: U87 and other human glioma cell lines (homogenates, conditioned media)
Protocol: uPA, tPA, and MMP-2 and MMP-9 enzymatic activities secreted by and contained within glioma cell lines, normal astrocyte cultures, primary rat brain, and intracranial glioma xenograft homogenates are measured using commercial peptide analog substrates, that become fluorescent when enzymatically cleaved. Recombinant tPA was obtained from ASSAYPRO, CT1001.

[8] = Neuropathology and behaviour with intracranial administration; assay type: in vivo
Excerpt: […]. For amiloride, parasaggital sections were stained with hematoxylin and eosin in addition to using specialized stains for neuronal damage (FluoroJade) and for myelinated fiber tracts (luxol fast blue). […].
. Each experimental and control group described below consist of a minimum of 10 animals per group. Experimental Design. The in vivo toxicity studies initially employ single, daily intracranial infusions of the candidate compound into a group of Sprague-Dawley rats for 13 days. Treated S-D animals are compared to a group of 10 control animals receiving intracranial drug vehicle injections. The infused drug concentration is based upon the cell line studies and adjusted for the low protein content of the cerebrospinal fluid which is 0.2% that of serum. Animals are behaviorally assessed for toxicity. […]. General Health and Behavioral Studies. Body weights and behavioral parameters are assessed daily in drug-treated and vehicle-treated rats during 12 day treatment paradigms. Currently, standardized behavior tests are used, which include quantitative measures of vestibulomotor function, fine motor coordination, ambulation, and spatial memory. A daily neurotoxicity behavioral sign checklist (72) to detect neurological signs of toxicity and seizures is also performed. Acquisition of spatial memory is particularly sensitive for detecting subtle drug toxicities (Preliminary Results). Body weight is used as a measure of general health. Neuropathological Studies: Cytological studies are performed in the same drug-treated and vehicle-treated rats at the conclusion of behavioral testing. Fixation and sectioning techniques are described in the Experimental Methods section. Hematoxylin and eosin are used routinely to survey for neuropathological changes. Luxol fast blue stains myelin tracts to evaluate potential white matter changes. […] Assessment of brainstem white matter tracts with luxol fast blue staining includes the spinocerebellar, vestibulospinal, corticospinal, spinothalamic. Specialized stains for reactive astrocytes, neuronal chromatolysis, etc. are added if brain lesions are detected. […]. Potential Problems and Alternatives. […]. […] These behavioral studies indicate the need to behaviorally assess treatment of the glioma tumor models.

[9] = tested on: intracerebral human U87 glioma xenografts; test: Intracerebral U87 glioma xenograft growth (NMR, stereology); assay type: in vivo, athymic rats
Protocol: The volume of U87 glioma xenografts were measured at different postimplantation times using the small animal 7 tesla NMR facility on UC Davis campus.
Determining tumor doubling time (hrs) in U87 xenografts were measured using small animal NMR.
Pretreatment of athymic rats with intracranial AmC(5)Gly-OBn for 3 days prior to implantation achieved steady-state brain levels as measured by HPLC-fluorometry. Following glioma cell implantation, once daily intracranial administration was continued for 10 days.
Rats (250-280 gm) are intubated with 4% isoflurane and air:O2 (2:1), maintained on 2% isoflurane, and placed into a Kopf stereotactic apparatus. Glioma cells at are harvested at 80% confluence, trypsinized, and then washed three times in sterile, isotonic phosphate buffered saline. Cells are counted in a hemocytometer and diluted to a final concentration of 1×10^4 cells per microL. 5 microL of glioma cells (5×10^4) are stereotaxically injected into a 0.5 mm pocket made by a 23 gauge needle in the left anterior corpus striatum (−1 mm bregma, +4 mm left lateral, −5.0 mm depth) under sterile conditions in a laminar flow hood.
Prior to imaging the rats are administered 0.5 cc of OMNISCAN gadodiamide intraperitoneally (NYCOMED). […] A gradient recalled echo sequence is obtained which furnished a single slice in sagittal, coronal, and transverse orientations (‘triplot’) and which served as a scout image to ensure proper positioning of the animal. Spectroscopic images are obtained with a 7 Tesla (300 MHz) BRUKER BIOSPEC 70/20 system with a 210 mm horizontal bore equipped with B-GA12 shim coils driven by BRUKER Shim Power Supply with a maximum of 2A of current for each shim. S116 birdcage design resonator coil (maximum current: 100 A and maximum voltage: 150V) of 72 mm maximum sample diameter with gradient strength of 200 mT/mm was used for both. T1-weighted images (TR/TE=500/20 msec) are obtained using the standard spin echo sequence in the transverse, sagittal as well as in the coronal direction. […] Multiple contiguous slices separated by 1 mm are collected using 3 sinc pulses each of 2 msec duration, and which cover the entire tumor in one scan. The average scan time is approx 60 sec for the entire T1-weighted protocol.
Cavalieri's method estimates the volume of a structure (in our case, glial tumor) by measuring the area of the structure in a number of evenly spaced “two-dimensional” sections. In our in vivo tumor model, the procedure involves a systematically random collection of 10 sections evenly spaced through the entire tumor. To perform this, the brain is cut into 40 micron coronal sections and every section is collected to encompass the entire tumor. When the anterior most portion of the tumor becomes visible in the series of sections, a die is thrown to determine if the first, second, third, fourth, or fifth section from that point should be the initial section saved for staining and area analysis. Henceforth, every tenth section is stained and tumor area measured. This ensures that each section through the tumor has an equal probability of being analyzed. Tumor area is estimated with suitable precision by applying to each section a point grid with a known area associated with each point (a/p). Tumor volume (V) is then calculated using the formula: V=(T)·(a/p) delta Pi; where T=distance between sections, P=points landing on the tumor on the ith section.

rat breast cancer = conditions: in vivo; cited from earlier work
[10] = phase II; cited from earlier work

cleavage by trypsin (in words) [1]: not cleaved
SMILES: CC(C)C[C@@H](NC(=O)[C@H](Cc1ccccc1)NC(=O)CNC(=O)[C@@H](C)NC(=O)CNc1nc(N)c(C(=O)NC(=N)N)nc1Cl)C(=O)O [Compound 3b, C5am-Gly-D-Ala-Gly-Phe-D-Leu-OH] (H-[X1][dA]GF[dL]-OH)
stability in control (buffer) digestion (in words) [2]: not cleaved

cleavage by trypsin (in words) [1]: did not generate C5am-Gly
SMILES: CC(C)C[C@H](NC(=O)[C@H](Cc1ccccc1)NC(=O)CNC(=O)CNC(=O)CNC(=O)CNc1nc(N)c(C(=O)NC(=N)N)nc1Cl)C(=O)O [Compound 3c, C5am-Gly-Gly-Gly-Gly-Phe-Leu-OH] (H-[X1]GGGFL-OH)

More lines, now with the values behind:

SMILES: NC(=NCc1ccc(Cl)cc1Cl)NC(=O)c1nc(Cl)c(N)nc1N [DCB, 2,4-dichlorobenzamil]
toxicity (in words) [3]: highly toxic and causes lethality when administered

SMILES: N=C(N)NC(=O)c1nc(Cl)c(NCC(=O)O)nc1N [AmC(5)Gly, amilorideC(5)-glycine-OH]
% cell death, trypan blue (U87 glioma cells [4]): (5) %
glioma cell death / viability (in words) (U87 glioma cells [4]; 48 h): does not affect
cell permeation (in words) (U87 glioma cells [5]): does not permeate glioma cells
cell permeation (in words) (U87 glioma cells [5]; listed as AmC(5)Gly-OH): does not permeate cells
cell permeation (in words) (U87 glioma cells [5]; listed as AmC(5)GlyOH): does not
glioma cell adherence to ECM (in words) (U87 glioma cells [6]): does not affect
activity at 250 µM (U87 glioma cells [6]): 85 ± 15%
cleavage by trypsin (in words) [1]: unaffected
stability in control (buffer) digestion (in words) [2]: unaffected
glioma cell proliferation (in words) (U87 glioma cells [7]): does not affect
activity at 250 µM (U87 glioma cells [7]): 93%
glioma cell volume (in words) (glioma cells): shrink glioma cell volumes
glioma cell volume (in words) (glioma cells; listed as AmC(5)Gly-OH): does reduce glioma cell volume
inhibition of NHE1 (in words) (NHE1): reversible and micromolar inhibitor
IC50 (NHE1; glioma cells): 10 to 100 nM
potency of NHE1 inhibition relative to amiloride (NHE1; glioma cells): 100-1000 times
inhibition of NHE1 (in words) (NHE1; listed as AmC(5)Gly-OH): micromolar range
inhibition of NHE1 (in words) (NHE1; listed as AmC(5)GlyOH): reversibly and comparably inhibit
inhibition of NHE1 (in words) (NHE1; listed as C5am-Gly): rapidly reversed
inhibition of uPA (in words) (uPA): reversible and micromolar inhibitor
inhibition of uPA (in words) (uPA; listed as AmC(5)-Gly-OH): selectively inhibit
inhibition of uPA (in words) (uPA; listed as AmC(5)Gly-OH): micromolar range
inhibition of uPA (in words) (uPA; listed as AmC(5)GlyOH): reversibly and comparably inhibit

SMILES: NC(N)=NC(=O)c1nc(Cl)c(N)nc1N [Amiloride, 3,5-diamino-6-chloro-N-(diaminomethylene)pyrazinecarboxamide]
% cell death, trypan blue (U87 glioma cells [4]): (57) %
cell permeation (in words) (U87 glioma cells [5]): rapidly permeate cells
behavioral side effects and seizures (in words) ([8]; efficacious intracranial administration): observed
neuropathological changes in normal brain cell types (in words) ([8]; intracranial administration, 10-14 days): Neither compound produces neuropathological changes; also recorded: Neuropathological changes were not observed
animals with intermittent seizures ([8]; intrathecal amiloride infusion, S-D male rats): 3 of 8
spatial memory (in words) ([8]; intrathecal infusion): modestly affect spatial memory; also recorded: problems with spatial memory that persisted throughout the nine day infusion period
premature deaths (in words) ([8]; rat, in vivo): no premature deaths
motor performance (in words) ([8]; rats with intracerebral glioma xenografts, infusion): did not alter motor performance
activity at 250 µM (U87 glioma cells [6]): 58 ± 12%
Doubling time ([9]; 10 mM amiloride reservoir (Alzet pump, infused days 12-17), day 10 post implant): 3.07 h
Doubling time ([9]; 10 mM amiloride reservoir, day 12 post implant): 3.4 h
Doubling time ([9]; 10 mM amiloride reservoir, day 15 post implant): 3.99 h
Doubling time ([9]; 10 mM amiloride reservoir, day 17 post implant): 4.44 h
Doubling time ([9]; 100 mM amiloride reservoir, 276 pmol/24 h (infused days 12-17), day 10 post implant): 1.23 h
Doubling time ([9]; 100 mM amiloride reservoir, 276 pmol/24 h, day 12 post implant): 1.98 h
Doubling time ([9]; 100 mM amiloride reservoir, 276 pmol/24 h, day 15 post implant): 4.58 h
Doubling time ([9]; 100 mM amiloride reservoir, 276 pmol/24 h, day 17 post implant): 11.65^++ hrs
xenograft tumor growth (in words) ([9]; intracranial administration): significantly slowed the growth rate
activity at 250 µM (U87 glioma cells [7]): 31%

SMILES: CCOC(=O)N1CCN(C(=O)[C@H](Cc2cccc(C(=N)N)c2)NS(=O)(=O)c2c(C(C)C)cc(C(C)C)cc2C(C)C)CC1.Cl [WX-UK1]
metastasis and primary tumour growth (in words) (rat breast cancer): suppresses rat breast cancer metastasis
toxicity in clinical trials (in words) [10]: non-toxic
